Structures are written as SMILES.

The target of one assay is T1, CDK6/CyclinD3 (Homo sapiens, UniProt Q00534).
T1 construct: purchased Carna 04-107
The assay is described as follows: Kinase activity assay (MSA, EZ Reader) against CDK6. It is filed as biochemical. Conditions: CDK6/CyclinD3 5.00 nM, ATP 350 µM, FL-Peptide34, 10mM MgCl2.

Assay [1] concerns human mantle cell lymphoma cells JEKO-1. Kind of assay: Cell anti-proliferation assay (MTT), JEKO-1. Conditions: Homo sapiens, 120 h, JEKO-1 cells, incubated for 5 days. It is filed as cell-based. The gist of the method:
(§1)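 Cells in DMEM with 10% FBS were seeded at 50,000 cells/mL and grown overnight at 37 °C, 5% CO2, then treated at 9 concentrations (3-fold serial dilution, 0.1% DMSO medium). MTT was added for 3 h, formazan dissolved in acidified isopropanol/NP-40, and absorbance read at 570 nm.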

A further assay concerns the target CDK4/CycD1 (Homo sapiens, UniProt P11802). The assay is described as follows: Kinase activity assay (MSA, EZ Reader) against CDK4.
Assay [2] relates to Human breast cancer cells MCF-7. Kind of assay: Cell anti-proliferation assay (MTT), MCF-7. It is filed as cell-based. The note with it: Homo sapiens, MCF7, 120 h, MCF-7 cells, incubated for 5 days. The procedure, abridged:
as §1

The subject of assay [3] is human ovarian cancer cells A2780. Kind of assay: Cell anti-proliferation assay (MTT), A2780. It is filed as cell-based. The note with it: Homo sapiens, 120 h, incubated for 5 days. The gist of the method: as §1

T1 sequence (Q00534 whole entry): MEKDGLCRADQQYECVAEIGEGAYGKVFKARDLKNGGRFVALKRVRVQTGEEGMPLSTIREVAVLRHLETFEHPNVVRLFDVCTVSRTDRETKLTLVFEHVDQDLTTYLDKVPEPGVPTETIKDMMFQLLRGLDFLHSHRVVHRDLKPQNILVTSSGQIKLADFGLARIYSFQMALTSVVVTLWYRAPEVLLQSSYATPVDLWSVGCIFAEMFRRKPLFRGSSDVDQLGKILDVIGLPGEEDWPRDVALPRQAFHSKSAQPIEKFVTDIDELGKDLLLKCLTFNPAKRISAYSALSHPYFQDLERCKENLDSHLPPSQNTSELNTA
T1 sequence (P30281 whole entry partner): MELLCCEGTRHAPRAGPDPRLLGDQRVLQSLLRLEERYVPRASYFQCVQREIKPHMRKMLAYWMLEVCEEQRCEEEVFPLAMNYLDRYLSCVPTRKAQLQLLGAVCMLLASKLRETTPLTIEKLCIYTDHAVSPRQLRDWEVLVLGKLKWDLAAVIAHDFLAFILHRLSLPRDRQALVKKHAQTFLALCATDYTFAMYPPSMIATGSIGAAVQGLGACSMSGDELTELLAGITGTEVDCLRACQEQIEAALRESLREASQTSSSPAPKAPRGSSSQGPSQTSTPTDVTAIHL
CDK4/CycD1, sequence (P11802 whole entry): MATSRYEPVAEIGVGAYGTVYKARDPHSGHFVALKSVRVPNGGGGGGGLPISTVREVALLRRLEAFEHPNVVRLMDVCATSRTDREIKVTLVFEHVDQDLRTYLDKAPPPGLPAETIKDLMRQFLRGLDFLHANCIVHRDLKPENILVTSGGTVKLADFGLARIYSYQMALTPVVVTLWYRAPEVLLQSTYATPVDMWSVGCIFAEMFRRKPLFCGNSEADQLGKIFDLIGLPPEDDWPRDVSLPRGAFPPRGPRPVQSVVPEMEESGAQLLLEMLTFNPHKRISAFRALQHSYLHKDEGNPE

As a reminder, the IC50 is the concentration that inhibits the measured activity by half. For `COC(=O)N(C)c1nc2c(F)cc(-c3nc(N[C@@H]4CCOC[C@H]4O)ncc3Cl)cc2n1C(C)C` [TB-8, methyl (6-(5-chloro-2-(((3S,4R)-3-hydroxytetrahydro-2H-pyran-4-yl)amino)pyrimidin-4-yl)-4-fluoro-1-isopropyl-1H-benzo[d]imidazol-2-yl)(methyl)carbamate], the IC50 was 334 nM at CDK6/CyclinD3; at most 500 nM in assay [1]; 18.8 nM at CDK4/CycD1; 500 to 2000 nM in assay [2]; at most 500 nM in assay [3].

Regarding `CC(C)n1c(N(C)CCO)nc2c(F)cc(-c3nc(N[C@@H]4CCOC[C@H]4O)ncc3Cl)cc21` [TB-9, (3S,4R)-4-((5-chloro-4-(4-fluoro-2-((2-hydroxyethyl)(methyl)amino)-1-isopropyl-1H-benzo[d]imidazol-6-yl)pyrimidin-2-yl)amino)tetrahydro-2H-pyran-3-ol], the IC50 was 223 nM at CDK6/CyclinD3; at most 500 nM in assay [1]; 40.1 nM against CDK4/CycD1; 500 to 2000 nM in assay [2]; at most 500 nM in assay [3].

As to `CC(C)n1c(N2CCCC2)nc2c(F)cc(-c3nc(N[C@@H]4CCOC[C@H]4O)ncc3Cl)cc21` [TB-11, (3S,4R)-4-((5-chloro-4-(4-fluoro-1-isopropyl-2-(pyrrolidin-1-yl)-1H-benzo[d]imidazol-6-yl)pyrimidin-2-yl)amino)tetrahydro-2H-pyran-3-ol], the IC50 at CDK6/CyclinD3 is 202 nM; in assay [1] it was at most 500 nM; against CDK4/CycD1 it was 6.45 nM; in assay [2] it was at most 500 nM; in assay [3], at most 500 nM.

`CC(C)n1c(N(C)C)nc2c(F)cc(-c3nc(N[C@@H]4CCN(S(C)(=O)=O)C[C@H]4O)ncc3Cl)cc21` [TB-13, (3R,4R)-4-((5-chloro-4-(2-(dimethylamino)-4-fluoro-1-isopropyl-1H-benzo[d]imidazol-6-yl)pyrimidin-2-yl)amino)-1-(methylsulfonyl)piperidin-3-ol]: the 50% inhibitory concentration (IC50) against CDK6/CyclinD3 was 18.6 nM; in assay [1] it was at most 500 nM; on CDK4/CycD1, 1.27 nM; in assay [2], at most 500 nM; in assay [3], at most 500 nM.

In the case of `CC(C)n1c(N2CC(O)C2)nc2c(F)cc(-c3nc(N[C@@H]4CCOC[C@H]4O)ncc3Cl)cc21` [TB-14, 1-(6-(5-chloro-2-(((3S,4R)-3-hydroxytetrahydro-2H-pyran-4-yl)amino)pyrimidin-4-yl)-4-fluoro-1-isopropyl-1H-benzo[d]imidazol-2-yl)azetidin-3-ol], the IC50 at CDK6/CyclinD3 was 235 nM; in assay [1] it was at most 500 nM; against CDK4/CycD1 it was 6.37 nM; in assay [2], at most 500 nM; in assay [3] it was at most 500 nM.

`CCN1CCN(Cc2ccc(Nc3ncc(Cl)c(-c4cc(F)c5nc(N(C)C)n(C(C)C)c5c4)n3)nc2)CC1` [TB-16]: the IC50 was 44.6 nM at CDK6/CyclinD3; at most 500 nM in assay [1]; 6.92 nM at CDK4/CycD1; at most 500 nM in assay [2]; at most 500 nM in assay [3].

For `COc1cc(N2CCNCC2)ccc1Nc1ncc(Cl)c(-c2cc(F)c3nc(N(C)C)n(C(C)C)c3c2)n1` [TB-17, 6-(5-chloro-2-((2-methoxy-4-(piperazin-1-yl)phenyl)amino)pyrimidin-4-yl)-4-fluoro-1-isopropyl-N,N-dimethyl-1H-benzo[d]imidazol-2-amine], the IC50 on CDK6/CyclinD3 is 297 nM; in assay [1], 500 to 2000 nM; on CDK4/CycD1 it was 33.8 nM; in assay [2], 500 to 2000 nM; in assay [3], 500 to 2000 nM.

As to `CC(C)n1c(N(C)C)nc2c(F)cc(-c3nc(Nc4ccc(N5CCNCC5)cn4)ncc3Cl)cc21` [TB-18, 6-(5-chloro-2-((5-(piperazin-1-yl)pyridin-2-yl)amino)pyrimidin-4-yl)-4-fluoro-1-isopropyl-N,N-dimethyl-1H-benzo[d]imidazol-2-amine], the IC50 at CDK6/CyclinD3 was 13.7 nM; in assay [1], at most 500 nM; at CDK4/CycD1, 2.6 nM; in assay [2] it was at most 500 nM; in assay [3] it was at most 500 nM.

Consider `CC(C)n1c(N2CCCOC2=O)nc2c(F)cc(-c3nc(N[C@@H]4CCOC[C@H]4O)ncc3Cl)cc21` [TB-25], for which the IC50 against CDK6/CyclinD3 was above 500 nM; in assay [1], at most 500 nM; on CDK4/CycD1, 43.4 nM; in assay [2], 500 to 2000 nM; in assay [3], at most 500 nM.

Turning to `CC(C)n1c(N2CCOC2=O)nc2c(F)cc(-c3nc(NC4CCN(S(C)(=O)=O)CC4)ncc3Cl)cc21` [TB-26], the half-inhibitory concentration (IC50) was 200 nM at CDK6/CyclinD3; at most 500 nM in assay [1]; 18.6 nM against CDK4/CycD1; at most 500 nM in assay [2]; at most 500 nM in assay [3].

Regarding `CC(C)n1c(N2CCOC2=O)nc2c(F)cc(-c3nc(NC4CCN(S(C)(=O)=O)CC4)ncc3F)cc21` [TB-28], the IC50 against CDK6/CyclinD3 is 154 nM; in assay [1], at most 500 nM; at CDK4/CycD1, 8.57 nM; in assay [2], at most 500 nM; in assay [3], at most 500 nM.

On to `CC(C)n1c(N2CCOC2=O)nc2c(F)cc(-c3nc(NC4CCN(S(=O)(=O)C(C)C)CC4)ncc3Cl)cc21` [TB-32], for which the 50% inhibitory concentration (IC50) at CDK6/CyclinD3 was 145 nM; in assay [1], at most 500 nM; against CDK4/CycD1 it was 12.3 nM; in assay [2], at most 500 nM; in assay [3], at most 500 nM.

As to `CC(C)n1c(N2CCOC2=O)nc2c(F)cc(-c3nc(NC4CCN(S(=O)(=O)C5CC5)CC4)ncc3Cl)cc21` [TB-33], the IC50 at CDK6/CyclinD3 was 61.7 nM; in assay [1], at most 500 nM; against CDK4/CycD1, 8.37 nM; in assay [2], at most 500 nM; in assay [3], at most 500 nM.

`CC(C)n1c(N2CCOC2=O)nc2c(F)cc(-c3nc(NC4CCN(S(C)(=O)=O)CC4(F)F)ncc3Cl)cc21` (stereo not shown) [TB-35]: the 50% inhibitory concentration (IC50) at CDK6/CyclinD3 was 167 nM; in assay [1], at most 500 nM; against CDK4/CycD1, 15.5 nM; in assay [2], at most 500 nM; in assay [3], at most 500 nM.

For the molecule `CC(C)n1c(N2CCOC2=O)nc2c(F)cc(-c3nc(Nc4ccc(S(=O)(=O)NCCN(C)C)cc4)ncc3Cl)cc21` [TB-38, 4-((5-chloro-4-(4-fluoro-1-isopropyl-2-(2-oxooxazolidin-3-yl)-1H-benzo[d]imidazol-6-yl)pyrimidin-2-yl)amino)-N-(2-(dimethylamino)ethyl)benzenesulfonamide], the IC50 is 76.6 nM against CDK6/CyclinD3; at most 500 nM in assay [1]; 18.5 nM at CDK4/CycD1; at most 500 nM in assay [2]; at most 500 nM in assay [3].

On to `CC1CCN(C)c2nc3c(F)cc(-c4nc(NC5CCN(S(C)(=O)=O)CC5)ncc4Cl)cc3n21` (stereo not shown) [TB-51, 5-chloro-4-(9-fluoro-1,4-dimethyl-1,2,3,4-tetrahydrobenzo[4,5]imidazo[1,2-a]pyrimidin-7-yl)-N-(1-(methylsulfonyl)piperidin-4-yl)pyrimidin-2-amine], for which the IC50 on CDK6/CyclinD3 is 27.6 nM; in assay [1] it was at most 500 nM; against CDK4/CycD1, 2.23 nM; in assay [2] it was at most 500 nM; in assay [3], at most 500 nM.

Regarding `CNS(=O)(=O)c1ccc(Nc2ncc(Cl)c(-c3cc(F)c4nc5n(c4c3)C(C)CCN5C)n2)cc1` (stereo not shown) [TB-53, 4-((5-chloro-4-(9-fluoro-1,4-dimethyl-1,2,3,4-tetrahydrobenzo[4,5]imidazo[1,2-a]pyrimidin-7-yl)pyrimidin-2-yl)amino)-N-methylbenzenesulfonamide], the IC50 at CDK6/CyclinD3 is 56.9 nM; in assay [1], at most 500 nM; on CDK4/CycD1 it was 10.6 nM; in assay [2], at most 500 nM; in assay [3] it was at most 500 nM.

In the case of `CC(C)n1c(N2CCOC2=O)nc2c(F)cc(-c3nc(Nc4ccc(S(=O)(=O)NCCN(C)C)cc4)nc4[nH]cnc34)cc21` [TB-70], the IC50 against CDK6/CyclinD3 was 76.6 nM; in assay [1], at most 500 nM; at CDK4/CycD1, 18.5 nM; in assay [2], at most 500 nM; in assay [3] it was at most 500 nM.

Regarding `CN1CCCn2c1nc1c(F)cc(-c3nc(Nc4ccc(C#N)cc4)ncc3Cl)cc12` [TB-133, 4-((5-chloro-4-(9-fluoro-1-methyl-1,2,3,4-tetrahydrobenzo[4,5]imidazo[1,2-a]pyrimidin-7-yl)pyrimidin-2-yl)amino)benzonitrile], the half-maximal inhibitory concentration (IC50) against CDK6/CyclinD3 is 64.8 nM; in assay [1] it was at most 500 nM; at CDK4/CycD1, 17.9 nM; in assay [2] it was at most 500 nM; in assay [3] it was at most 500 nM.

With `CC1(C)CSc2nc3c(F)cc(-c4nc(N[C@@H]5CCOC[C@H]5O)ncc4Cl)cc3n2C1` [TB-146], the IC50 was 60.1 nM on CDK6/CyclinD3; at most 500 nM in assay [1]; 11.9 nM against CDK4/CycD1; at most 500 nM in assay [2]; at most 500 nM in assay [3].

`C[C@@H]1C[C@H](C)n2c(nc3c(F)cc(-c4nc(N[C@@H]5CCOC[C@H]5O)ncc4Cl)cc32)N1C` [TB-154]: the IC50 at CDK6/CyclinD3 was 75.8 nM; in assay [1], at most 500 nM; on CDK4/CycD1 it was 3 nM; in assay [2] it was at most 500 nM; in assay [3], at most 500 nM.

For the molecule `C[C@H]1CCN(CC(C)(C)O)c2nc3c(F)cc(-c4nc(N[C@@H]5CCOC[C@H]5O)ncc4Cl)cc3n21` [TC-7], the 50% inhibitory concentration (IC50) was 154 nM against CDK6/CyclinD3; at most 500 nM in assay [1]; 3.7 nM at CDK4/CycD1; at most 500 nM in assay [2]; at most 500 nM in assay [3].

Turning to `C[C@H]1CCN(c2ccc(F)cc2F)c2nc3c(F)cc(-c4nc(N[C@@H]5CCOC[C@H]5O)ncc4Cl)cc3n21` [TC-13], the half-maximal inhibitory concentration (IC50) against CDK6/CyclinD3 was 74.4 nM; in assay [1], at most 500 nM; at CDK4/CycD1 it was 3.3 nM; in assay [2], at most 500 nM; in assay [3], at most 500 nM.

The values above are taken from patent publication EP4775575A1, “COMPOUND USED AS CDK4 KINASE INHIBITOR AND USE THEREOF” (TYK Medicines, Inc., priority 2023, dated 2025).
